# Reference: ChEMBL document CHEMBL3627618, “Rethinking the old antiviral drug moroxydine: Discovery of novel analogues as anti-hepatitis C virus (HCV) agents” (Bioorg Med Chem Lett, 2015)
# The source made the active and inactive calls. No cut-off for these calls is given here.
# Assays:
# [1] = tested on: Hepatitis C virus; experiment: Antiviral activity against HCV pseudotyped particles infected in human HuH7 cells assessed as reduction of viral entry preincubated with cells for 1 hr followed by viral inoculation for 3 hrs by luciferase reporter gene assay; format: functional, organism-based; settings: Hepacivirus hominis; Huh-7
# [2] = Cytotoxicity against human HuH7-J20 cells expressing secreted alkaline phosphatase reporter gene assessed as cell viability at 10 uM incubated for 1 hr by WST-1 assay; format: cell-based; settings: huh-7, 1 h
# [3] = tested on: Hepatitis C virus; experiment: Antiviral activity against HCV JFH1 infected in human HuH7-J20 cells assessed as inhibition of viral life cycle by measuring secreted alkaline phosphatase level preincubated with cells for 1 hr followed by viral inoculation for 3 hrs and fresh drug administration every 24 hrs at 1/10th of initial concentration for 48 hrs measured at 72 hrs; format: functional, cell-based, Hepacivirus hominis; settings: genotype 2a JFH-1, Huh-7
# [4] = Selectivity index, ratio of CC50 for human HuH7-J20 cells expressing secreted alkaline phosphatase reporter gene preincubated for 1 hr followed by fresh drug administration every 24 hrs for 48 hrs to EC50 for HCV JFH1 infected in human HuH7-J20 cells preincubated with cells for 1 hr followed by viral inoculation for 3 hrs and fresh drug administration every 24 hrs at 1/10th of initial concentration for 48 hrs measured at 72 hrs; design: species or system Huh-7
# [5] = Cytotoxicity against human HuH7 assessed as cell viability after 24 hrs by WST-1 assay; format: cell-based; settings: huh-7, 24 h
# [6] = Cytotoxicity against human HuH7-J20 cells expressing secreted alkaline phosphatase reporter gene assessed as cell viability incubated for 1 hr by WST-1 assay; format: cell-based, Huh-7
# [7] = tested on: Hepatitis C virus; experiment: Antiviral activity against HCV JFH1 infected in human HuH7-J20 cells assessed as inhibition of viral life cycle by measuring secreted alkaline phosphatase level preincubated with cells for 1 hr followed by viral inoculation for 3 hrs measured at 72 hrs; format: functional, cell-based, Hepacivirus hominis; settings: for EC50: genotype 2a JFH-1, Huh-7
# [8] = Cytotoxicity against human HuH7-J20 cells expressing secreted alkaline phosphatase reporter gene assessed as cell viability preincubated for 1 hr followed by fresh drug administration every 24 hrs at 1/10th of initial concentration for 48 hrs by WST-1 assay; format: cell-based, Huh-7
# [9] = Selectivity index, ratio of CC50 for human HuH7-J20 cells expressing secreted alkaline phosphatase reporter gene incubated for 1 hr to EC50 for HCV JFH1 infected in human HuH7-J20 cells preincubated with cells for 1 hr followed by viral inoculation for 3 hrs measured at 72 hrs; design: species or system Huh-7
# [10] = tested on: Hepatitis C virus; experiment: Antiviral activity against HCV JFH1 sub genomic replicon infected in human HuH7 cells assessed as inhibition of viral RNA replication at 10 uM measured after 24 hrs by luciferase reporter gene assay; format: functional, Hepacivirus hominis; settings: genotype 2a JFH-1, Huh-7, 24 h
# [11] = tested on: Hepatitis C virus; experiment: Antiviral activity against HCV JFH1 infected in human HuH7-J20 cells assessed as inhibition of viral life cycle by measuring secreted alkaline phosphatase level […] preincubated with cells for 1 hr followed by viral inoculation for 3 hrs measured at 72 hrs relative to control; format: functional; settings: Hepacivirus hominis; genotype 2a JFH-1; Huh-7
# [12] = tested on: Hepatitis C virus; experiment: Ratio of EC50 for HCV JFH1 infected in human HuH7-J20 cells preincubated with cells for 1 hr followed by viral inoculation for 3 hrs measured at 72 hrs to EC50 for HCV JFH1 infected in human HuH7-J20 cells preincubated with cells for 1 hr followed by viral inoculation for 3 hrs and fresh drug administration every 24 hrs at 1/10th of initial concentration for 48 hrs measured at 72 hrs; format: functional, Hepacivirus hominis, genotype 2a JFH-1, Huh-7
SMILES,Activity [1],Activity [2],EC50 [3],Ratio CC50/EC50 [4],CC50 at 1 h [6],EC50 [7],CC50 at 48 h [8],Ratio CC50/EC50 [9],other results
Cl.N=C(NC(=O)N1CCN(c2ccc(Cl)cc2)CC1)Nc1ccccc1,inactive,Non-toxic,–,–,–,–,–,–,–
Cl.N=C(N)NC(=O)NCCCCN,–,Non-toxic,–,–,–,–,–,–,–
Cl.N=C(NC(=O)N1CCN(c2ccc(C34CC5CC(CC(C5)C3)C4)cc2)CC1)Nc1ccc(Cl)cc1,inactive,–,13.9 µM,5.54,73 µM,9.8 µM,77 µM,7.45,Activity [5]: Non-toxic
Cc1ccc(N2CCN(C(=O)NC(=N)Nc3ccccc3)CC2)cc1.Cl,inactive,–,4.7 µM,4.4,26.4 µM,9.35 µM,21 µM,2.82,–
CCOC(=O)CNC(=O)NC(=N)NC(=O)OC(C)(C)C,–,Non-toxic,–,–,–,–,–,–,–
CC(C)(C)OC(=O)/N=C(\NCc1ccccc1)NC(=O)N1CCN(c2ccccc2)CC1,–,Non-toxic,–,–,–,–,–,–,–
Cl.N=C(NCc1ccccc1)NC(=O)N1CCN(c2ccc(Cl)cc2)CC1,inactive,–,2.41 µM,14.4,64 µM,45.7 µM,34.7 µM,1.4,Activity [5]: Non-toxic; inhibition at 10 µM [10]: ≤ 50%
Cl.N=C(NC(=O)N1CCN(c2cc(Cl)cc(Cl)c2)CC1)Nc1ccc(Cl)cc1,inactive,–,1.69 µM,20.2,63 µM,10.4 µM,34.2 µM,6.06,Activity [5]: Non-toxic
CC(C)(C)OC(=O)/N=C(\NCc1ccccc1)NC(=O)N1CCOCC1,–,Non-toxic,–,–,–,–,–,–,–
Cl.N=C(NCc1ccccc1)NC(=O)N1CCN(c2ccccc2)CC1,inactive,Non-toxic,–,–,–,–,–,–,–
Cl.N=C(N)NC(=O)N1CCOCC1,–,Non-toxic,–,–,–,–,–,–,–
N=C(N)NC(=N)Nc1ccccc1,–,–,–,–,–,–,–,–,inhibition [11]: inactive
CCOC(=O)CNC(=O)NC(=N)N.Cl,–,Non-toxic,–,–,–,–,–,–,–
Cl.N=C(N)NC(=O)NCc1ccccc1,–,–,35.3 µM,9.19,324 µM,52 µM,325 µM,6.23,–
Cc1ccc(N2CCN(C(=O)NC(=N)Nc3ccc(Cl)cc3)CC2)cc1.Cl,inactive,Non-toxic,–,–,–,–,–,–,–
CC(C)(C)OC(=O)NC(=N)NC(=O)NCc1ccccc1,–,–,6.17 µM,7.99,92.9 µM,21.9 µM,49.3 µM,4.25,Activity [5]: Non-toxic; Ratio EC50 [12]: 3
N=C(N)NC(=N)NCc1ccccc1,–,–,–,–,–,–,–,–,inhibition [11]: inactive
Cl.N=C(NCc1ccccc1)NC(=O)N1CCOCC1,inactive,Non-toxic,–,–,–,–,–,–,–
Cl.N=C(NCc1ccccc1)NC(=O)N1CCCC1,inactive,Non-toxic,–,–,–,–,–,–,–
N=C(N)NC(=N)N1CCOCC1,–,–,–,–,–,–,–,–,"inhibition ([7]; Hepacivirus hominis, genotype 2a JFH-1, Huh-7): inactive"
Cl.N=C(NCc1ccccc1)NC(=O)N1CCN(c2ccc(F)cc2)CC1,inactive,Non-toxic,–,–,–,–,–,–,–
Cl.N=C(NC(=O)N1CCN(c2ccc([N+](=O)[O-])cc2)CC1)Nc1ccccc1,inactive,Non-toxic,–,–,–,–,–,–,–
N=C(N)NC(=N)Nc1ccc(F)cc1,–,–,–,–,–,–,–,–,inhibition [11]: inactive
Cl.N=C(NC(=O)N1CCN(c2ccccc2)CC1)Nc1ccccc1,inactive,–,8.7 µM,>3.4,> 30 µM,59.5 µM,> 30 µM,0.5,–
Cl.N=C(NC(=O)N1CCN(c2ccc([N+](=O)[O-])cc2)CC1)Nc1ccc(Cl)cc1,inactive,Non-toxic,–,–,–,–,–,–,–
NC(=O)c1ncn([C@@H]2O[C@H](CO)[C@@H](O)[C@H]2O)n1 [RIBAVIRIN],–,–,33.5 µM,0.91,> 30 µM,30.4 µM,30.5 µM,>1,–
C=CCNC(=O)NC(=N)NCc1ccccc1.Cl,inactive,Non-toxic,–,–,–,–,–,–,–
N=C(N)NC(=N)N1CCN(c2ccccc2)CC1,–,–,–,–,–,–,–,–,inhibition [11]: inactive
Cl.N=C(NC(=O)N1CCN(c2ccccc2)CC1)Nc1ccc(Cl)cc1,inactive,–,1.3 µM,30.4,> 30 µM,11.2 µM,39.7 µM,>2.68,Activity [5]: Non-toxic; inhibition at 10 µM [10]: ≤ 50%
